Laboratory results taken from ChEMBL document CHEMBL1201862, “PubChem BioAssay data set” (2004).
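Where inhibition never reached the appropriate level, the endpoint shown equals the highest concentration tested. Otherwise, values were interpolated linearly from a five-concentration, 48-hour dose response in 96-well plates. Abbreviation: GI50, concentration required for 50% inhibition of growth.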 Active and inactive are the calls of the source. Cut-off read from the data, not from the text of the source: active = GI50 up to about 1.1 µM and inactive = higher.

Columns and labels:
Test in all cases: inhibition of tumour cell growth, NCI panel, 48 h
PC-3 = tested on: PC-3
DU-145 = tested on: DU-145
UACC-257 = tested on: UACC-257
NCI-H460 = tested on: NCI-H460
CAKI-1 = tested on: CAKI-1
MDA-MB-435 = tested on: MDA-MB-435
OVCAR-5 = tested on: OVCAR-5
SK-MEL-5 = tested on: SK-MEL-5
M14 = tested on: M14
IGROV-1 = tested on: IGROV-1
T47D = tested on: T47D
SNB-19 = tested on: SNB-19
SF-268 = tested on: SF-268
OVCAR-8 = tested on: OVCAR-8
LOX IMVI = tested on: LOX IMVI
EKVX = tested on: EKVX
OVCAR-4 = tested on: OVCAR-4
HCT-116 = tested on: HCT-116
HOP-62 = tested on: HOP-62
SW-620 = tested on: SW-620

In the case of `O=C(O)/C(=C/C(=O)c1ccc(Cl)cc1)NNc1ccc([N+](=O)[O-])cc1[N+](=O)[O-]`, the GI50 (PC-3) is reported as 36.2 µM (inactive), the GI50 (DU-145) is reported as 47.2 µM (inactive) and the GI50 (UACC-257) is reported as > 100 µM (inactive). The GI50 (NCI-H460) was 34.3 µM (inactive), the GI50 (CAKI-1) was 24.8 µM (inactive) and the GI50 (MDA-MB-435) was 67.9 µM (inactive). For the same compound, the GI50 (OVCAR-5) was 82.8 µM (inactive), the GI50 (SK-MEL-5) was > 100 µM (inactive) and the GI50 (M14) was 42.1 µM (inactive). For the same compound, the GI50 (IGROV-1) was 66.7 µM (inactive), the GI50 (T47D) was 55.5 µM (inactive) and the GI50 (SNB-19) was 43.4 µM (inactive). The GI50 (SF-268) was 38.7 µM (inactive), the GI50 (OVCAR-8) was 29.5 µM (inactive) and the GI50 (LOX IMVI) was 75.3 µM (inactive). For the same compound, the GI50 (EKVX) was > 100 µM (inactive), the GI50 (OVCAR-4) was 19.7 µM (inactive) and the GI50 (HCT-116) was 19.6 µM (inactive). For the same compound, the GI50 (HOP-62) was 28.4 µM (inactive).
For `O=[N+]([O-])c1ccc(-n2nc3ccc4nonc4c3n2)cc1`, the GI50 (PC-3) was 74.3 µM (inactive), the GI50 (DU-145) was 79.6 µM (inactive) and the GI50 (UACC-257) was > 100 µM (inactive). The GI50 (NCI-H460) was 37.3 µM (inactive), the GI50 (CAKI-1) was 22.7 µM (inactive) and the GI50 (MDA-MB-435) was > 100 µM (inactive). For the same compound, the GI50 (OVCAR-5) was > 100 µM (inactive), the GI50 (SK-MEL-5) was 31.2 µM (inactive) and the GI50 (M14) was 52.1 µM (inactive). The GI50 (SW-620) was > 100 µM (inactive), the GI50 (IGROV-1) was 27.9 µM (inactive) and the GI50 (T47D) was 29.6 µM (inactive). For the same compound, the GI50 (SNB-19) was 25.4 µM (inactive), the GI50 (SF-268) was 34.3 µM (inactive) and the GI50 (LOX IMVI) was 42.4 µM (inactive). The GI50 (EKVX) was 58.3 µM (inactive), the GI50 (OVCAR-4) was 9.08 µM (inactive) and the GI50 (HCT-116) was 74.6 µM (inactive). For the same compound, the GI50 (HOP-62) was 16.6 µM (inactive).
For `CC12CCC(/C(=N/c3ccc([N+](=O)[O-])cc3)C1=O)C2(C)C` (configuration not stated), the GI50 (PC-3) was 24.5 µM (inactive), the GI50 (DU-145) was 25.7 µM (inactive) and the GI50 (UACC-257) was 32.4 µM (inactive). The GI50 (NCI-H460) was 25.6 µM (inactive), the GI50 (CAKI-1) was 19.3 µM (inactive) and the GI50 (MDA-MB-435) was 17.1 µM (inactive). For the same compound, the GI50 (OVCAR-5) was 51.5 µM (inactive), the GI50 (SK-MEL-5) was 26.2 µM (inactive) and the GI50 (M14) was 27.9 µM (inactive). The GI50 (SW-620) was 23.3 µM (inactive), the GI50 (IGROV-1) was 25.1 µM (inactive) and the GI50 (T47D) was 16.3 µM (inactive). For the same compound, the GI50 (SNB-19) was 33.4 µM (inactive), the GI50 (SF-268) was 20.3 µM (inactive) and the GI50 (OVCAR-8) was 23 µM (inactive). For the same compound, the GI50 (LOX IMVI) was 14.7 µM (inactive), the GI50 (EKVX) was 20.1 µM (inactive) and the GI50 (OVCAR-4) was 13.1 µM (inactive). The GI50 (HCT-116) was 19.1 µM (inactive) and the GI50 (HOP-62) was 25.2 µM (inactive).
With `COc1cc(CCNC2=CC(=O)c3cccnc3C2=O)ccc1O` the GI50 (PC-3) was 2.76 µM (inactive), the GI50 (DU-145) was 1.72 µM (inactive) and the GI50 (UACC-257) was 0.869 µM (active). For the same compound, the GI50 (NCI-H460) was 1.09 µM (active), the GI50 (CAKI-1) was 1.39 µM (inactive) and the GI50 (MDA-MB-435) was 0.173 µM (active). The GI50 (OVCAR-5) was 1.63 µM (inactive), the GI50 (SK-MEL-5) was 0.385 µM (active) and the GI50 (M14) was 1.49 µM (inactive). The GI50 (SW-620) was 1.4 µM (inactive), the GI50 (IGROV-1) was 1.44 µM (inactive) and the GI50 (T47D) was 8.51 µM (inactive). For the same compound, the GI50 (SNB-19) was 1.61 µM (inactive), the GI50 (SF-268) was 2.07 µM (inactive) and the GI50 (OVCAR-8) was 2.26 µM (inactive). For the same compound, the GI50 (LOX IMVI) was 0.284 µM (active), the GI50 (EKVX) was 3.08 µM (inactive) and the GI50 (OVCAR-4) was 1.92 µM (inactive). The GI50 (HCT-116) was 1.84 µM (inactive) and the GI50 (HOP-62) was 1.32 µM (inactive).
For `CC1(C)OC(=S)N(c2ccccc2)C12C=Cc1ccccc1O2` (configuration not stated), the GI50 (PC-3) was 41.7 µM (inactive), the GI50 (DU-145) was > 100 µM (inactive) and the GI50 (UACC-257) was 42.1 µM (inactive). For the same compound, the GI50 (NCI-H460) was 71.6 µM (inactive), the GI50 (CAKI-1) was > 100 µM (inactive) and the GI50 (MDA-MB-435) was 36.4 µM (inactive). The GI50 (OVCAR-5) was > 100 µM (inactive), the GI50 (SK-MEL-5) was 56.5 µM (inactive) and the GI50 (M14) was 90.6 µM (inactive). The GI50 (SW-620) was 72.3 µM (inactive), the GI50 (IGROV-1) was 41.6 µM (inactive) and the GI50 (T47D) was 20.5 µM (inactive). For the same compound, the GI50 (SNB-19) was > 100 µM (inactive), the GI50 (SF-268) was > 100 µM (inactive) and the GI50 (OVCAR-8) was > 100 µM (inactive). For the same compound, the GI50 (LOX IMVI) was > 100 µM (inactive), the GI50 (EKVX) was 53.5 µM (inactive) and the GI50 (OVCAR-4) was 33.4 µM (inactive). For the same compound, the GI50 (HCT-116) was 36.6 µM (inactive) and the GI50 (HOP-62) was > 100 µM (inactive).
With `COc1ccc2c(c1)nc1n2C(c2c(Cl)cccc2Cl)SC1` (configuration not stated) the GI50 (PC-3) was > 33.3 µM (inactive), the GI50 (DU-145) was 22.3 µM (inactive) and the GI50 (UACC-257) was 37.8 µM (inactive). The GI50 (NCI-H460) was 12.1 µM (inactive), the GI50 (CAKI-1) was > 60.7 µM (inactive) and the GI50 (MDA-MB-435) was 2.59 µM (inactive). For the same compound, the GI50 (OVCAR-5) was > 67.8 µM (inactive), the GI50 (SK-MEL-5) was 5.02 µM (inactive) and the GI50 (M14) was 12.4 µM (inactive). For the same compound, the GI50 (IGROV-1) was 18.1 µM (inactive), the GI50 (T47D) was 16.9 µM (inactive) and the GI50 (SNB-19) was > 33.5 µM (inactive). For the same compound, the GI50 (SF-268) was 20 µM (inactive), the GI50 (OVCAR-8) was > 61 µM (inactive) and the GI50 (LOX IMVI) was 25.8 µM (inactive). The GI50 (EKVX) was > 64.1 µM (inactive), the GI50 (OVCAR-4) was > 46.6 µM (inactive) and the GI50 (HCT-116) was 7.85 µM (inactive). For the same compound, the GI50 (HOP-62) was 32.9 µM (inactive).
In the case of `O=[N+]([O-])c1ccc(Sc2c3ccccc3nc3ccccc23)nc1`, the GI50 (PC-3) is reported as 14.8 µM (inactive), the GI50 (DU-145) is reported as 6.93 µM (inactive) and the GI50 (UACC-257) is reported as 7.06 µM (inactive). For the same compound, the GI50 (NCI-H460) was 23.2 µM (inactive), the GI50 (CAKI-1) was 4.88 µM (inactive) and the GI50 (MDA-MB-435) was 8.55 µM (inactive). For the same compound, the GI50 (OVCAR-5) was 18.6 µM (inactive), the GI50 (SK-MEL-5) was 16.7 µM (inactive) and the GI50 (M14) was 3.22 µM (inactive). The GI50 (SW-620) was 2.08 µM (inactive), the GI50 (IGROV-1) was 16.7 µM (inactive) and the GI50 (T47D) was 2.57 µM (inactive). The GI50 (SNB-19) was 18.4 µM (inactive), the GI50 (SF-268) was 8.71 µM (inactive) and the GI50 (OVCAR-8) was 22 µM (inactive). For the same compound, the GI50 (LOX IMVI) was 2.24 µM (inactive), the GI50 (EKVX) was 17 µM (inactive) and the GI50 (OVCAR-4) was 4.69 µM (inactive). The GI50 (HCT-116) was 2.09 µM (inactive) and the GI50 (HOP-62) was 23.3 µM (inactive).
